# Experimental data as given in patent publication US8642834B2, “Methods for the identification of agents that inhibit mesenchymal-like tumor cells or their formation” (OSI Pharmaceuticals, LLC, priority 2009, dated 2014).
# No end group written: not given here.
# Assays:
# CFPAC-1 cells [1] = test: Induction of EMT by growth factors and cytokines, E-cadherin and vimentin immunoblotting; type: cell-based, human; settings: CFPAC-1 cells treated 7 days with ligand
# Description: The CFPAC1 cell line was cultured in DMEM media (Gibco #11960) supplemented with 10% FBS (Sigma), 2 mM L Glutamine (Gibco), at 37° C., 5% CO2. For 7 day treatments, cells were seeded on tissue culture plastic in complete growth media and allowed to attach overnight at cell densities that would provide approximately 60-80% confluence at end of experiment. Ligand and/or inhibitor was added the following day (Day 0) in complete growth media and incubated at 37° C., 5% CO2. Ligand source and concentrations used are as follows: [1] From R&D systems, SDF-1α (stromal derived factor-1 alpha) at 100 ng/ml, TRANCE (TNF-related activation induced cytokine) at 50 ng/ml, FGF1 (fibroblast growth factor acidic) at 10 ng/ml, FGF2 (fibroblast growth factor basic) at 10 ng/ml, BMP4 (bone morphogenetic protein 4) at 100 ng/ml, BMP7 (bone morphogenetic protein 7) at 100 ng/ml, IGF2 (insulin-like growth factor 2) at 100 ng/ml, OSM (Oncostatin M) at 100 ng/ml, NRG1 (Neuregulin-1) at 50 ng/ml, PDGFaa (Platelet derived growth factor a) at 50 ng/ml, PDGFbb (platelet derive growth factor b) at 30 ng/ml, Ang2 (Angiopoeitin 2) at 400 ng/ml, amphiregulin at 100 ng/ml, HMGB 1 (Human high-mobility group box 1 protein) at 50 ng/ml; [2] From Genscript, LIF (Leukemia inhibitory factor) at 20 ng/ml, GM-CSF (Granulocyte macrophage colony stimulating factor) at 25 ng/ml, M-CSF (Macrophage colony stimulating factor) at 50 ng/ml; [3] From Anaspec, PAR1 (Protease activated receptor 1 agonist) at 100 μM; PAR2 (Protease activated receptor 2 agonist; peptide SLIGKV-NH2, Cat. No. 60217-1) at 100 μM; PAR4 (Protease activated receptor […] agonist; peptide AYPGKF-NH2, Cat. No. 60218-1) at 100 μM; [4] From Peprotech, HGF (Hepatocyte Growth Factor) at 100 ng/ml; IL-31 (Interleukin-31) at 50 ng/ml, IL-33 (Interleukin-33) at 50 ng/ml, IL1-a (Interleukin-1 alpha) at 10 ng/ml, CTGF (Connective tissue growth factor) at 20 ng/ml, WISP1 (Wnt-1 inducible signaling pathway protein) at 20 ng/ml, PTHrP ([…] hormone-related protein) at 50 ng/ml, MCP1 (monocyte chemotactic protein-1) at 50 ng/ml; and [5] from Sigma, Fulvestrant at 1 μM. Fresh medium containing ligand and/or inhibitor was added 3-4 days after initial dose, and at Day 7 cells were harvested for western blot analysis.
# Cells were harvested by washing once with PBS, and lysing on ice for 10 minutes with scraping (using a Cell Lifter, Corning Inc. #3008) in ice cold RIPA buffer (Sigma R0278) containing Protease inhibitor (Sigma P8340), Phosphatase inhibitors (Sigma P2850, P5726) and 200 μM Sodium Vanadate. Supernatents were micro-centrifuged at max speed, 4° C. for 10 minutes. Protein content was quantitated using the BCA method (Pierce #23225) and samples were normalized to total protein in Laemli buffer and heated at 100° C. for 10 minutes. SDS PAGE was run using a Bis-Tris gel system (Invitrogen NuPAGE) with MOPS buffer (Invitrogen NP0001), transferred onto nitrocellulose using the iBLOT system (Invitrogen) and blocked in PBS-T (0.1% Tween 20), 5% non-fat milk or BSA in guidance with primary Ab supplier requirements. All primary antibodies were incubated overnight at 4° C. in PBS-T (0.1% Tween 20) in either 5% non-fat milk or BSA, diluted to the following working dilutions: anti E Cadherin (Santa Cruz #sc-21791) 1:500 dilution; anti Vimentin (BD Biosciences #550513) 1:2000 dilution;); anti GAPDH HRP conjugate (Santa Cruz sc-25778) 1:1000 dilution; anti β-Actin (Sigma, A5441) 1:10,000 dilution. […]
# CFPAC-1 cells [2] = test: Inhibition of ligand-induced EMT by JAK or MEK inhibitor; type: cell-based, human; settings: JAK inhibitor 0.25 μM
# Description: Supernatents were micro-centrifuged at max speed, 4° C. for 10 minutes. […] SDS PAGE was run using a Bis-Tris gel system (Invitrogen NuPAGE) with MOPS buffer (Invitrogen NP0001), transferred onto nitrocellulose using the iBLOT system (Invitrogen) and blocked in PBS-T (0.1% Tween 20), 5% non-fat milk or BSA in guidance with primary Ab supplier requirements. […] Secondary HRP labeled antibodies used were: anti Rabbit IgG HRP (Amersham NA934) 1:5000 dilution; anti Mouse IgG HRP (Sigma A2304) 1:2000 dilution. Membranes were visualized using the Supersignal ELISA Femto Maximum Sensitivity Substrate (Pierce).
# [3] = system: advanced, treatment-refractory NSCLC; settings: phase III, monotherapy, patients with advanced; cited from earlier work
# pancreatic cancer = settings: phase III, first-line, in combination with gemcitabine; cited from earlier work
compound,measurement,setting,value
"IGF2: insulin-like growth factor 2, R&D systems, 100 ng/ml","Induction of EMT (E-cadherin down, vimentin up)",CFPAC-1 cells [1],Partial EMT
CC(C)(C)c1nc2c3cc[nH]c(=O)c3c3cc(F)ccc3c2[nH]1 [JAK inhibitor],Block of morphology change,"CFPAC-1 cells [2]; CFPAC-1 cells treated with OSM 7 days, light microscopy",blocked the morphology change
same,Block of EMT process,"CFPAC-1 cells [2]; OSM-triggered EMT, 7 days, MEK inhibitor 3 μM",could block EMT process
"AYPGKF-NH2 [PAR4 agonist AYPGKF-NH2, reference compound]","Induction of EMT (E-cadherin down, vimentin up)",CFPAC-1 cells [1],Partial EMT
"SLIGKV-NH2 (UniProt P55085 37-42, looked up, fragment) [PAR2 agonist SLIGKV-NH2, reference compound]","Induction of EMT (E-cadherin down, vimentin up)",CFPAC-1 cells [1],Partial EMT
"C#Cc1cccc(Nc2ncnc3cc(OCCOC)c(OCCOC)cc23)c1 [erlotinib, [6,7-bis(2-methoxyethoxy)-4-quinazolin-4-yl]-(3-ethynylphenyl) amine]","Survival, disease progression, lung cancer-related symptoms",[3],"significantly prolonged survival, delayed disease progression and delayed worsening of lung cancer-related symptoms"
same,Survival,pancreatic cancer,improves survival
"LIF: Leukemia inhibitory factor, Genscript, 20 ng/ml","Induction of EMT (E-cadherin down, vimentin up)",CFPAC-1 cells [1],Partial EMT
